Where only a bound is given, the exact number is not on record here.

The first test concerns Human RSV-A (“Long” strain). Briefly: RSV-A assay: inhibition of cytopathic effect in Hep-2 cells, ATPlite readout. The note with it: Hep-2 cells, MOI 0.1, 5-day incubation, ATPlite; read-out: Human RSV-A (“Long” strain) EC50. It is filed as cell-based, Human respiratory syncytial virus (HRSV). A digest of the protocol:
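Cytopathic-effect protection was read as ATP content (ATPlite luminescence) after a 5-day incubation. Setup: Hep-2 cells at 8,000 per well, RSV-A Long at MOI 0.1, 2-fold serial compound dilutions in duplicate. Cytotoxicity (CC50) was measured on an identical uninfected plate run in parallel.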
Take `COCCCc1cc(C(F)(F)F)cnc1-c1nnc(N[C@H]2N=C(c3ccccc3)c3ccccc3NC2=O)o1` [Example 413]: the EC50 was greater than 800 nM.

In the case of `O=C1Nc2ccccc2C(c2ccccc2)=N[C@@H]1Nc1nnc(-c2ncc(C(F)(F)F)cc2N[C@H]2CC[C@H]2O)o1` [Example 417], the EC50 was greater than 800 nM. The same measure, in the same setting: for `O=C1Nc2ccccc2C(c2ccccc2)=N[C@@H]1Nc1nnc(-c2ncc(C(F)(F)F)cc2N[C@@H]2CC[C@@H]2O)o1` [Example 418] the value was greater than 800 nM. The same measure, in the same setting: for `O=C1Nc2ccccc2C(c2ccccc2)=N[C@@H]1Nc1ncc(-c2ncc(C(F)(F)F)cc2N2CCOCC2)o1` [Example 442] the value was less than 400 nM. Take `O=C1Nc2ccccc2C(c2ccccc2)=N[C@@H]1Nc1nnc(-c2cn(-c3ccc(C(F)(F)F)nc3)nc2N2CCOCC2)o1` [Example 444]: the EC50 was less than 400 nM. As for `O=C1Nc2ccccc2C(c2ccccc2)=N[C@@H]1Nc1nnc(-c2cn(CC3CC3)nc2N2CCOCC2)o1` [Example 446], the EC50 was less than 400 nM. Same read-out and setting: as for `O=C1Nc2ccccc2C(c2ccccc2)=N[C@H]1Nc1nnc(-c2cn(CC3CC3)nc2N2CCOCC2)o1` [Example 447], the figure is 400 to 800 nM.

The test is the same for the next values; noted with them: human respiratory syncytial virus, HEp-2, 120 h, read-out: Human RSV-A (“Long” strain) EC50.
As to `COCc1ccc2nccc(-c3nnc(N[C@H]4N=C(c5ccccc5)c5ccccc5NC4=O)o3)c2c1` [Example 409], the EC50 is greater than 800 nM. Same read-out and setting: for `COc1ccn2ncc(-c3nnc(N[C@H]4N=C(c5ccccc5)c5ccccc5NC4=O)o3)c2c1` [Example 410] the value was greater than 800 nM; for `COCCc1cccn2ncc(-c3nnc(N[C@H]4N=C(c5ccccc5)c5ccccc5NC4=O)o3)c12` [Example 411], greater than 800 nM; for `COCC(C)(C)Nc1cc(C(F)(F)F)cnc1-c1nnc(N[C@H]2N=C(c3ccccc3)c3ccccc3NC2=O)o1` [Example 414], greater than 800 nM. The same measure, in the same setting: for `COCC1(Nc2cc(C(F)(F)F)cnc2-c2nnc(N[C@H]3N=C(c4ccccc4)c4ccccc4NC3=O)o2)CC1` [Example 415] the value was greater than 800 nM; for `COC(C)(C)CNc1cc(C(F)(F)F)cnc1-c1nnc(N[C@H]2N=C(c3ccccc3)c3ccccc3NC2=O)o1` [Example 416], greater than 800 nM. The same measure, in the same setting: for `O=C1Nc2ccccc2C(c2ccccc2)=N[C@@H]1Nc1nnc(-c2ncc(C(F)(F)F)cc2NC[C@@H]2CCCO2)o1` [Example 419] the value was 400 to 800 nM; for `O=C1Nc2ccccc2C(c2ccccc2)=N[C@@H]1Nc1nnc(-c2ncc(C(F)(F)F)cc2NC[C@H]2CCCO2)o1` [Example 420], less than 400 nM. Consider `O=C1Nc2ccccc2C(c2ccccc2)=N[C@@H]1Nc1nnc(-c2ncc(C(F)(F)F)cc2NCc2ccco2)o1` [Example 421], for which the EC50 is greater than 800 nM. The same measure, in the same setting: as for `O=C1Nc2ccccc2C(c2ccccc2)=N[C@@H]1Nc1nnc(-c2ncc(C(F)(F)F)cc2N[C@H]2CCC[C@H]2O)o1` [Example 422], the figure is 400 to 800 nM; as for `O=C1Nc2ccccc2C(c2ccccc2)=N[C@@H]1Nc1nnc(-c2ncc(C(F)(F)F)cc2N[C@@H]2CCC[C@@H]2O)o1` [Example 423], 400 to 800 nM; as for `CC1(Nc2cc(C(F)(F)F)cnc2-c2nnc(N[C@H]3N=C(c4ccccc4)c4ccccc4NC3=O)o2)CCOC1` (stereo partly shown) [Example 424], greater than 800 nM. Still for that read-out and setting: for `O=C1Nc2ccccc2C(c2ccccc2)=N[C@@H]1Nc1nnc(-c2cn(-c3cccnc3)nc2N2CCOCC2)o1` [Example 425] the value was less than 400 nM; for `COCCn1ccc2cccc(-c3nnc(N[C@H]4N=C(c5ccccc5)c5ccccc5NC4=O)o3)c21` [Example 426], greater than 800 nM; for `O=C1Nc2ccccc2C(c2ccccc2)=N[C@@H]1Nc1nnc(-c2nc(-c3ccccc3F)sc2N2CCOCC2)o1` [Example 427], less than 400 nM. Still for that read-out and setting: for `O=C1Nc2ccccc2C(c2ccccc2)=N[C@@H]1Nc1nnc(-c2nc(-c3ccc(F)cc3)sc2N2CCOCC2)o1` [Example 428] the value was less than 400 nM.

For the molecule `O=C1Nc2ccccc2C(c2ccccc2)=N[C@@H]1Nc1nnc(-c2cn(C3CCC3)nc2N2CCOCC2)o1` [Example 430], the EC50 is less than 400 nM. On the same count and under the same terms, for `O=C1Nc2ccccc2C(c2ccccc2)=N[C@@H]1Nc1nnc(-c2cn(-c3ccccn3)nc2N2CCOCC2)o1` [Example 431] the value was less than 400 nM; for `Cc1cc(-c2nnc(N[C@H]3N=C(c4ccccc4)c4ccccc4NC3=O)o2)n(C2CCOCC2)n1` [Example 432], greater than 800 nM. On the same count and under the same terms, as for `O=C1Nc2ccccc2C(c2ccccc2)=N[C@@H]1Nc1nnc(-c2nc3ccccc3nc2N2CCOCC2)o1` [Example 433], the figure is less than 400 nM; as for `O=C1Nc2ccccc2C(c2ccccc2)=N[C@@H]1Nc1nnc(-c2cc3ccccc3nc2N2CCOCC2)o1` [Example 434], less than 400 nM. For `N#Cc1ccc2nccc(-c3nnc(N[C@H]4N=C(c5ccccc5)c5ccccc5NC4=O)o3)c2c1` [Example 435], the EC50 is greater than 800 nM. On the same count and under the same terms, for `CO[C@@H]1COC[C@H]1Nc1cc(C(F)(F)F)cnc1-c1nnc(N[C@H]2N=C(c3ccccc3)c3ccccc3NC2=O)o1` [Example 436] the value was less than 400 nM; for `CC(C)(O)c1nc(-c2nnc(N[C@H]3N=C(c4ccccc4)c4ccccc4NC3=O)o2)c(N2CCOCC2)s1` [Example 437], less than 400 nM.

For the molecule `COCCN1CCCn2ncc(-c3nnc(N[C@H]4N=C(c5ccccc5)c5ccccc5NC4=O)o3)c21` [Example 438], the EC50 lay within 400 to 800 nM.

As to `COC1C2CN(c3cc(C(F)(F)F)cnc3-c3nnc(N[C@H]4N=C(c5ccccc5)c5ccccc5NC4=O)o3)CC21` (stereo partly shown) [Example 439], the EC50 is greater than 800 nM. On the same count and under the same terms, as for `O=C1Nc2ccccc2C(c2ccccc2)=N[C@@H]1Nc1nnc(-c2cn(-c3ccc(C(F)(F)F)cn3)nc2N2CCOCC2)o1` [Example 440], the figure is 400 to 800 nM. Still for that read-out and setting: as for `N#Cc1ccn2ncc(-c3nnc(N[C@H]4N=C(c5ccccc5)c5ccccc5NC4=O)o3)c2c1` [Example 441], the figure is greater than 800 nM. Same read-out and setting: for `O=C1Nc2ccccc2C(c2ccccc2)=NC1Nc1nnc(-c2cn(-c3ccc(F)cn3)nc2N2CCOCC2)o1` (stereo not shown) [Example 448] the value was less than 400 nM; for `COCc1ccn2ncc(-c3nnc(N[C@H]4N=C(c5ccccc5)c5ccccc5NC4=O)o3)c2c1` [Example 449], greater than 800 nM. Turning to `O=C1Nc2ccccc2C(c2ccccc2)=NC1Nc1nnc(-c2ncc(C(F)(F)F)cc2CCO)o1` (stereo not shown) [Example 450], the EC50 was greater than 800 nM. With `COC[C@@H](C)Nc1sc(C(F)(F)F)nc1-c1nnc(N[C@H]2N=C(c3ccccc3)c3ccccc3NC2=O)o1` [Example 451], the EC50 lay within 400 to 800 nM.

For the molecule `CO[C@@H](C)CNc1sc(C(F)(F)F)nc1-c1nnc(N[C@H]2N=C(c3ccccc3)c3ccccc3NC2=O)o1` [Example 452], the EC50 was less than 400 nM. For the molecule `O=C1Nc2ccccc2C(c2ccccc2)=N[C@@H]1Nc1nnc(-c2nc(C(F)(F)F)sc2C2=CCOCC2)o1` [Example 453], the EC50 was less than 400 nM. The same measure, in the same setting: for `O=C1Nc2ccccc2C(c2ccccc2)=N[C@@H]1Nc1nnc(-c2nc(C(F)(F)C(F)(F)F)sc2N2CCOCC2)o1` [Example 454] the value was less than 400 nM.

For the molecule `O=C1Nc2ccccc2C(c2ccccc2)=N[C@@H]1Nc1nnc(-c2nc(C3(O)CCC3)sc2N2CCOCC2)o1` [Example 455], the EC50 is less than 400 nM.

Turning to `COC[C@H]1CCCN1c1sc(C(F)(F)F)nc1-c1nnc(N[C@H]2N=C(c3ccccc3)c3ccccc3NC2=O)o1` [Example 456], the concentration for a half-maximal effect (EC50) was greater than 800 nM. Same read-out and setting: as for `COC[C@@H]1CCCN1c1sc(C(F)(F)F)nc1-c1nnc(N[C@H]2N=C(c3ccccc3)c3ccccc3NC2=O)o1` [Example 457], the figure is greater than 800 nM. As to `CCOC1(c2nc(-c3nnc(N[C@H]4N=C(c5ccccc5)c5ccccc5NC4=O)o3)c(N3CCOCC3)s2)CCC1` [Example 458], the EC50 is less than 400 nM. The same measure, in the same setting: for `CC(C)(c1nc(-c2nnc(N[C@H]3N=C(c4ccccc4)c4ccccc4NC3=O)o2)c(N2CCOCC2)s1)N1CCOCC1` [Example 459] the value was less than 400 nM; for `O=C1Nc2ccccc2C(c2ccccc2)=N[C@@H]1Nc1nnc(-c2ncc(C(F)F)cc2N2CCOCC2)o1` [Example 461], less than 400 nM; for `O=C1Nc2ccccc2C(c2ccccc2)=N[C@@H]1Nc1cc(-c2ccccc2)cnn1` [Example 462], greater than 800 nM. Still for that read-out and setting: as for `O=C1Nc2ccccc2C(c2ccccc2)=NC1Nc1cc(N2CCOCC2)cnn1` (stereo not shown) [Example 463], the figure is greater than 800 nM. The same measure, in the same setting: as for `O=C1Nc2ccccc2C(c2ccccc2)=N[C@@H]1Nc1nnc(-c2ncc(C(F)(F)F)cc2N[C@@H]2CCOC2)o1` [Example 464], the figure is less than 400 nM; as for `Cc1nsc(N2CCOCC2)c1-c1nnc(N[C@H]2N=C(c3ccccc3)c3ccccc3NC2=O)o1` [Example 465], 400 to 800 nM; as for `O=C1Nc2ccccc2C(c2ccccc2)=N[C@@H]1Nc1nnc(-c2ncc(C(F)(F)F)cc2N2CCOc3ccccc32)o1` [Example 468], greater than 800 nM. On to `O=C1Nc2ccccc2C(c2ccccc2)=N[C@@H]1Nc1nnc(-c2ncc(C(F)(F)F)cc2NC2COC2)o1` [Example 469], for which the EC50 was less than 400 nM. Take `O=C1Nc2ccccc2C(c2ccccc2)=N[C@@H]1Nc1nnc(-c2ncc(C(F)(F)F)cc2N[C@H]2CCOC2)o1` [Example 470]: the EC50 was greater than 800 nM. Take `O=C1Nc2ccccc2C(c2ccccc2)=N[C@@H]1Nc1nnc(-c2ccsc2N2CCOCC2)o1` [Example 471]: the EC50 is less than 400 nM. Same read-out and setting: as for `COCCNc1sccc1-c1nnc(N[C@H]2N=C(c3ccccc3)c3ccccc3NC2=O)o1` [Example 472], the figure is greater than 800 nM; as for `COCCNc1sc(C(F)(F)F)nc1-c1nnc(N[C@H]2N=C(c3ccccc3)c3ccccc3NC2=O)o1` [Example 473], less than 400 nM. On to `O=C1Nc2ccccc2C(c2ccccc2)=N[C@@H]1Nc1nnc(-c2nc(C(F)(F)F)sc2N[C@@H]2CCOC2)o1` [Example 474], for which the EC50 was less than 400 nM.

Consider `O=C1Nc2ccccc2C(c2ccccc2)=N[C@@H]1Nc1nnc(-c2nc(C(F)(F)F)sc2NCC2COC2)o1` [Example 475], for which the EC50 is 400 to 800 nM. On the same count and under the same terms, for `O=C1Nc2ccccc2C(c2ccccc2)=N[C@@H]1Nc1nnc(-c2oc3cc(F)ccc3c2N2CCOCC2)o1` [Example 476] the value was 400 to 800 nM.

By EC50 is commonly meant the concentration that produces a half-maximal response.

The record behind these values is patent US11390631B1, “Benzodiazepine derivatives as RSV inhibitors” (priority 2015, dated 2022).
